Measured values as given in ChEMBL document CHEMBL4014333, “Discovery of Small Molecules for Repressing Cap-Independent Translation of Human Vascular Endothelial Growth Factor (hVEGF) as Novel Antitumor Agents” (J Med Chem, 2017).
Calls of active or inactive are those of the source. No rule for the calls is given here. Numbered stars: 1 amine (or outer) side, 2 acyl side, 3 side chain; on linkers, the order of the positions; unused ones are H or OH. Square brackets hold non-standard residues; d marks the D form. Peptide text beside a SMILES is read from it. X1 = CN1CCC(COc2ccc3oc4c(N(CC(=O)[*:2])[*:1])c5ccccc5nc4c3c2)CC1

Columns and labels:
[1] = species: Homo sapiens; test: Binding affinity to biotin-labeled human wild type internal ribosome entry site A RNA G-quadruplex by SPR analysis
[2] = Binding affinity to biotin-labeled DNA hairpin (unknown origin) by SPR analysis
[3] = species: Homo sapiens; test: Binding affinity to biotin-labeled human 5'-UGAUGAGUGUGAGGAGGA-3' RNA G-quadruplex by SPR analysis

Row | Activity [1] | Activity [2] | Activity [3] | Structure (SMILES)
1 | Active | Active | Active | C[n+]1c2ccccc2c(NCCN2CCOCC2)c2oc3ccc(OCC[N+]4(C)CCOCC4)cc3c21
2 | Active | Active | Active | CN(C)CCCNc1c2ccccc2[n+](C)c2c1oc1ccc(OCC3CC[N+](C)(C)CC3)cc12
3 | Active | Active | Active | CCN(CC)CCNc1c2ccccc2[n+](C)c2c1oc1ccc(OCC[N+]3(C)CCOCC3)cc12
4 | Active | Active | Active | C[n+]1c2ccccc2c(NCCN2CCCCC2)c2oc3ccc(OCC(=O)NCCN4CCCCC4)cc3c21
5 | Active | Active | Active | C[n+]1c2ccccc2c(NCCN2CCOCC2)c2oc3ccc(OCC4CC[N+](C)(C)CC4)cc3c21
6 | Active | Active | Active | CCN(CC)CCCNc1c2ccccc2[n+](C)c2c1[nH]c1ccccc12
7 | Active | Active | Active | C[n+]1c2ccccc2c(NCC(=O)NCC(=O)NC(CCCNC(=N)N)C(=O)O)c2oc3ccccc3c21 (stereo not drawn)
8 | Active | Active | Active | CCN(CC)CCCNc1c2ccccc2[n+](C)c2c1oc1ccc(OCCC[N+](C)(C)C)cc12
9 | Active | Active | Active | C[n+]1c2ccccc2c(NCCCN2CCOCC2)c2oc3ccc(OCCC[N+](C)(C)C)cc3c21
10 | Active | Active | Active | CN(C)CCCNc1c2ccccc2[n+](C)c2c1oc1ccc(OCCC[N+](C)(C)C)cc12
11 | Active | Active | Active | C[n+]1c2ccccc2c(NCCN2CCOCC2)c2oc3ccc(OCCC[N+](C)(C)C)cc3c21
12 | Active | Active | Active | CCN(CC)CCNc1c2ccccc2[n+](C)c2c1oc1ccc(OCCC[N+](C)(C)C)cc12
13 | Active | Active | Active | CCN(CC)CCNc1c2ccccc2[n+](C)c2c1oc1ccc(OCC[N+](C)(C)C)cc12
14 | Active | Active | Active | C[n+]1c2ccccc2c(NCCN2CCCCC2)c2oc3ccc(OCC[N+]4(C)CCCCC4)cc3c21
15 | Active | Active | Active | COc1ccc2cc3[n+](cc2c1NCCCN(C)C)CCc1cc2c(cc1-3)OCO2
16 | Active | Active | Active | COc1ccc2cc3[n+](cc2c1NCCCN1CCOCC1)CCc1cc2c(cc1-3)OCO2
17 | Active | Active | Active | CCN(CC)CCNC(=O)COc1ccc2oc3c(NCCN(CC)CC)c4ccccc4[n+](C)c3c2c1
18 | Active | Active | Active | CCN(CC)CCCNc1c2ccccc2[n+](C)c2c1oc1ccc(OCC[N+]3(C)CCOCC3)cc12
19 | Active | Active | Active | COc1ccc2cc3[n+](cc2c1NCCCN1CCCCC1)CCc1cc2c(cc1-3)OCO2
20 | Active | Active | Active | CN(C)CCNc1c2ccccc2[n+](C)c2c1oc1ccc(OCCC[N+](C)(C)C)cc12
21 | Active | Active | Active | C[n+]1c2ccccc2c(NCCN2CCCCC2)c2oc3ccc(OCC4CC[N+](C)(C)CC4)cc3c21

Row | Activity [1] | Activity [2] | Activity [3] | Structure (SMILES)
22 | Active | Active | Active | C[n+]1c2ccccc2c(NCCN2CCOCC2)c2oc3ccc(OCC[N+](C)(C)C)cc3c21
23 | Active | Active | Active | C[n+]1c2ccccc2c(NCC(=O)NCC(=O)NCC(=O)O)c2oc3ccccc3c21
24 | Active | Active | Active | CN1CCC(COc2ccc3oc4c(NCC(=O)NCC(=O)NC(CCCNC(=N)N)C(=O)NC(CCCNC(=N)N)C(=O)NCC(=O)O)c5ccccc5nc4c3c2)CC1 (stereo not drawn) (H-[X1]GRRG-OH; configuration not given here)
25 | Active | Active | Active | C[n+]1c2ccccc2c(NCCCN2CCOCC2)c2oc3ccc(OCC4CC[N+](C)(C)CC4)cc3c21
26 | Active | Active | Active | CN(C)CCNc1c2ccccc2[n+](C)c2c1oc1ccc(OCC[N+](C)(C)C)cc12
27 | Active | – | – | C[n+]1c2ccccc2c(NCC(=O)NCC(=O)NC(Cc2c[nH]cn2)C(=O)O)c2oc3ccccc3c21 (stereo not drawn)
28 | Active | Active | Active | CCN(CC)CCNc1c2ccccc2[n+](C)c2c1oc1ccc(OCC[N+]3(C)CCCCC3)cc12
29 | Active | – | – | C[n+]1c2ccccc2c(NCCO)c2[nH]c3ccccc3c21
30 | Active | Active | Active | CN(C)CCCNc1c2ccccc2[n+](C)c2c1oc1ccc(OCC[N+](C)(C)C)cc12
31 | Active | Active | Active | CN(C)CCCNc1c2ccccc2[n+](C)c2c1oc1ccc(OCC[N+]3(C)CCOCC3)cc12
32 | Active | – | – | CN(C)CCCNc1c2ccccc2nc2c1oc1cc(OCCN(C)C)ccc12
33 | Active | Active | Active | CN(C)CCCNc1c2ccccc2[n+](C)c2c1oc1ccc(OCC[N+]3(C)CCCCC3)cc12
34 | Active | – | – | COc1ccc2cc3[n+](cc2c1OCCCOc1ccncc1)CCc1cc2c(cc1-3)OCO2
35 | Active | – | – | COc1ccc2cc3[n+](cc2c1OCCC[n+]1cccc(F)c1)CCc1cc2c(cc1-3)OCO2
36 | Active | Active | Active | CN(C)CCCNc1c2ccccc2nc2c1oc1cc(OCCCN(C)C)ccc12
37 | Active | Active | Active | CN(C)CCNc1c2ccccc2[n+](C)c2c1oc1ccc(OCC3CC[N+](C)(C)CC3)cc12
38 | Active | Active | Active | CN(C)CCNc1c2ccccc2[n+](C)c2c1oc1ccccc12
39 | Active | – | – | CN(C)CCCNc1c2ccccc2nc2c1oc1ccc(OCCN(C)C)cc12
40 | Active | – | – | CN1CCC(COc2ccc3oc4c(NCC(=O)NCC(=O)NC(CCCNC(=N)N)C(=O)NC(CCC(=O)O)C(=O)O)c5ccccc5nc4c3c2)CC1 (stereo not drawn)
41 | Active | Active | Active | C[n+]1c2ccccc2c(NCC(=O)NCC(=O)NC(Cc2ccccc2)C(=O)O)c2oc3ccccc3c21 (stereo not drawn)
42 | Active | – | – | CN(C)CCNc1c2ccccc2nc2c1oc1ccc(OCCN(C)C)cc12

Row | Activity [1] | Activity [2] | Activity [3] | Structure (SMILES)
43 | Active | Active | Active | C[n+]1c2ccccc2c(NCCCN2CCOCC2)c2oc3ccc(OCC[N+](C)(C)C)cc3c21
44 | Active | Active | Active | C[n+]1c2ccccc2c(NCCN2CCCCC2)c2oc3ccc(OCC[N+]4(C)CCOCC4)cc3c21
45 | Active | Active | Active | CN(C)CCNc1c2ccccc2[n+](C)c2c1[nH]c1ccc(F)cc12
46 | Active | Active | Active | CN1CCC(COc2ccc3oc4c(NCC(=O)NCC(=O)NC(CCCNC(=N)N)C(=O)NC(CO)C(=O)O)c5ccccc5nc4c3c2)CC1 (stereo not drawn)
47 | Active | – | – | CN(C)CCCNc1c2ccccc2nc2c1oc1c(OCCN(C)C)cccc12
48 | Active | Active | Active | COc1ccc2cc3[n+](cc2c1NCCc1ccccc1)CCc1cc2c(cc1-3)OCO2
49 | Active | Active | Active | CCN(CC)CCCNc1c2ccccc2[n+](C)c2c1oc1ccc(OCC[N+](C)(C)C)cc12
50 | Active | – | – | CN1CCC(COc2ccc3oc4c(NCC(=O)NCC(=O)NC(CCCNC(=N)N)C(=O)O)c5ccccc5nc4c3c2)CC1 (stereo not drawn)
51 | Active | – | – | CC(NC(=O)C(CCCNC(=N)N)NC(=O)CNC(=O)CNc1c2ccccc2nc2c1oc1ccc(OCC3CCN(C)CC3)cc12)C(=O)O (stereo not drawn)
52 | Active | Active | Active | C[n+]1c2ccccc2c(NCCN2CCCCC2)c2oc3ccc(OCC[N+](C)(C)C)cc3c21
53 | Active | – | – | COc1ccc2cc3[n+](cc2c1OCCC[n+]1ccccc1)CCc1cc2c(cc1-3)OCO2
54 | Active | – | – | CN1CCC(COc2ccc3oc4c(NCC(=O)NCC(=O)NC(CCCNC(=N)N)C(=O)NC(Cc5c[nH]c6ccccc56)C(=O)O)c5ccccc5nc4c3c2)CC1 (stereo not drawn)
55 | Active | – | – | C[n+]1c2ccccc2c(NCCCN2CCOCC2)c2oc3ccc(OCC(=O)NCCN4CCOCC4)cc3c21
56 | Active | – | – | COc1ccc2cc3[n+](cc2c1OCCC[n+]1cccc(C)c1)CCc1cc2c(cc1-3)OCO2
57 | Active | – | – | O=C1/C(=C\c2ccc(N3CCOCC3)cc2)CC/C1=C\c1cccnc1
58 | Active | – | – | CN1CCC(COc2ccc3oc4c(NCC(=O)NCC(=O)NC(CCCNC(=N)N)C(=O)NC(Cc5ccccc5)C(=O)O)c5ccccc5nc4c3c2)CC1 (stereo not drawn)
59 | Active | – | – | COc1ccc2cc3[n+](cc2c1OCCCn1ccc(N)nc1=O)CCc1cc2c(cc1-3)OCO2
60 | Active | – | – | CN1CCC(COc2ccc3oc4c(NCC(=O)NCC(=O)NC(CCCNC(=N)N)C(=O)NC(Cc5ccc(O)cc5)C(=O)O)c5ccccc5nc4c3c2)CC1 (stereo not drawn)
61 | Active | – | – | CN1CCC(COc2ccc3oc4c(NCC(=O)NCC(=O)NC(CCCCN)C(=O)O)c5ccccc5nc4c3c2)CC1 (stereo not drawn)
